# Data: US5071749A, “Glycopetide antibiotic PA-45052-B” (Shionogi & Co., Ltd., priority 1987, dated 1991)
# Experiments:
# Cl. perfringens 3C-01 = format: cell-based, Clostridium perfringens; conditions: strain 3C-01, origin chicken; GAM agar, anaerobic, 37° C., 24 hours
# [1] = tested on: Cl. perfringens FC 2208/75; format: cell-based, Clostridium perfringens; conditions: strain FC 2208/75, origin cow; GAM agar, anaerobic, 37° C., 24 hours
# [2] = tested on: Cl. perfringens NCTC-8798; format: cell-based, Clostridium perfringens; conditions: strain NCTC-8798, origin cow; GAM agar, anaerobic, 37° C., 24 hours
# [3] = tested on: Staphylococcus aureus ATCC 25923; experiment: In vitro antibacterial activity, agar dilution method (MIC); conditions: 37° C., 18-20 hrs
# [4] = tested on: Staphylococcus aureus SR3626; experiment: as above; format: cell-based; conditions: Staphylococcus aureus SR3626, methicillin-resistant, 37° C., 18-20 hrs
# [5] = tested on: Streptococcus pyogenes C-203; experiment: as above; conditions: horse serum 0.5%, 37° C., 18-20 hrs
# [6] = tested on: Staphylococcus aureus PDA 209P JC-1; experiment: as above; conditions: 37° C., 18-20 hrs
# [7] = tested on: Streptococcus epidermidis ATCC 14490; experiment: as above; conditions: 37° C., 18-20 hrs
# [8] = tested on: Streptococcus agalactiae SR 1247; experiment: as above; conditions: horse serum 0.5%, 37° C., 18-20 hrs
# [9] = tested on: Staphylococcus aureus SR3131; experiment: as above; format: cell-based; conditions: Staphylococcus aureus SR3131, methicillin-resistant, 37° C., 18-20 hrs
# [10] = tested on: Cl. perfringens NCTC-10239; format: cell-based, Clostridium perfringens; conditions: strain NCTC-10239, origin cow; GAM agar, anaerobic, 37° C., 24 hours
# [11] = tested on: Cl. perfringens NCTC-8239; format: cell-based, Clostridium perfringens; conditions: strain NCTC-8239, origin cow; GAM agar, anaerobic, 37° C., 24 hours
# [12] = tested on: Staphylococcus aureus SMITH; experiment: In vitro antibacterial activity, agar dilution method (MIC); conditions: 37° C., 18-20 hrs
# Cl. perfringens SP07 = format: cell-based, Clostridium perfringens; conditions: strain SP07, origin chicken; GAM agar, anaerobic, 37° C., 24 hours
# Cl. perfringens 6B-10 = format: cell-based, Clostridium perfringens; conditions: strain 6B-10, origin cow; GAM agar, anaerobic, 37° C., 24 hours
# [13] = tested on: Streptococcus pyogenes C-203; experiment: Antibacterial activity in vivo, mouse intraperitoneal infection (ED50); conditions: Slc-ICR female mice, i.p. inoculation of Streptococcus pyogenes C-203; s.c. dosing 1 and 5 hours later; survival on day 7
# Method: (§1) Test method: The test organism is intraperitoneally inoculated to Slc-ICR female mice (8 mice per group), and PA-45052-A, -B or -C (two-fold dilution) is subcutaneously administered twice one hour later and 5 hours later.
# (§2) Results: The 50% effective dose (ED50) is calculated from the survival rate on day 7.
# [14] = tested on: Staphylococcus aureus SR 3637; experiment: as above; conditions: Slc-ICR female mice, i.p. inoculation of S. aureus SR 3637 (methicillin-resistant); s.c. dosing 1 and 5 hours later; survival on day 7
# Method: as §1, §2
# [15] = tested on: Streptococcus pneumoniae Type I; experiment: as above; conditions: Slc-ICR female mice, i.p. inoculation of Streptococcus pneumoniae Type I; s.c. dosing 1 and 5 hours later; survival on day 7
# Method: as §1, §2
# [16] = tested on: Staphylococcus aureus SR 2030; experiment: as above; conditions: Slc-ICR female mice, i.p. inoculation of S. aureus SR 2030 (methicillin-resistant); s.c. dosing 1 and 5 hours later; survival on day 7
# Method: as §1, §2
# [17] = tested on: Streptococcus faecalis SR 1004; experiment: In vitro antibacterial activity, agar dilution method (MIC); conditions: horse serum 0.5%, 37° C., 18-20 hrs
# [18] = tested on: Streptococcus pneumoniae Type I; experiment: as above; conditions: horse serum 0.5%, 37° C., 18-20 hrs
# Cl. perfringens 9C-02 = format: cell-based, Clostridium perfringens; conditions: strain 9C-02, origin chicken; GAM agar, anaerobic, 37° C., 24 hours
# Cl. perfringens 02441 = format: cell-based, Clostridium perfringens; conditions: strain 02441, origin chicken; GAM agar, anaerobic, 37° C., 24 hours
# mouse = experiment: LD50 on injection to mouse; format: in vivo
# Source text: The growth-stimulating agent of this invention not only promotes growth of animals but also improves feed efficiency. Naturally, it is effective against infections by bacteria.
# [19] = tested on: Staphylococcus aureus SR14; experiment: In vitro antibacterial activity, agar dilution method (MIC); format: cell-based; conditions: Staphylococcus aureus SR14, penicillin-resistant, 37° C., 18-20 hrs
# [20] = tested on: Staphylococcus aureus SR1626; experiment: as above; format: cell-based; conditions: Staphylococcus aureus SR1626, methicillin-resistant, 37° C., 18-20 hrs
# Cl. perfringens CW-1970 = format: cell-based, Clostridium perfringens; conditions: strain CW-1970, origin cow; GAM agar, anaerobic, 37° C., 24 hours
# Cl. perfringens S-79 = format: cell-based, Clostridium perfringens; conditions: strain S-79, origin cow; GAM agar, anaerobic, 37° C., 24 hours
# broiler chicks = experiment: Growth-stimulation test on chicks; format: in vivo, broiler chicks (arbor acre); conditions: 20 ppm in feed for 14 days; for FCR: feed efficiency (B/A) / FCR (%), index when control group is 100 / Increase of weight (%), index when control group is 100: broiler chicks; for Increase of weight A (M = g) ± SD (average increase of weight): broiler chicks 8 to 22 days old, 24 chicks; for FCR (%), index when control group is 100 / Increase of weight (%), index when control group is 100: control = 100
# Source text: The growth-stimulating activities of PA-45052-A, PA-45052-B and PA-45052-E on broiler chicks (arbor acre, 8 days old) were investigated by using the known antibiotic thiopeptin as a referential agent. Chicks were fed with a feed mush (crude protein (CP) concentration 18%, each agent's concentration 20 ppm, not supplemented with other antibiotics) for 14 days in the battery brooders. The method of this experiment was as follows. After chicks were fed by floor pen with a feed (CP concentration 23%) from 0 to 8 days, they were divided into 5 groups (24 chicks a group, 12 male and 12 female) in such a way that the average weights of the groups are equal. To each group was administered PA-45052-A (20 ppm), PA-45052-B (20 ppm), PA-45052-E (20 ppm), thiopeptin (20 ppm) or only a feed (CP 18%) for 14 days. Each group was fed in cages (435×600×410 mm, each cage has 6-7 chicks) at 26°±2° C. for 14 days (up to 22 days old). Effectiveness was estimated from the increase of weight and the feed efficiency.
Molecule,MIC (Cl. perfringens 3C-01),MIC [1],MIC [2],MIC [3],MIC [4],MIC [5],MIC [6],MIC [7],MIC [8],MIC [9],MIC [10],MIC [12],MIC [17],MIC [18],MIC [19],MIC [20],FCR: feed efficiency (B/A) (broiler chicks),Increase of weight A (M = g) ± SD (average increase of weight) (broiler chicks),"FCR (%), index when control group is 100 (broiler chicks)","Increase of weight (%), index when control group is 100 (broiler chicks)",further results
CNC(CC(C)C)C(=O)NC1C(=O)NC(CC(N)=O)C(=O)NC2C(=O)NC3C(=O)NC(C(=O)NC(C(=O)O)c4cc(O)cc(O)c4-c4cc3ccc4O)C(OC3CC(C)(N)C(O)C(C)O3)c3ccc(c(Cl)c3)Oc3cc2cc(c3OC2OC(CO)C(O)C(O)C2OC2CC(C)(N)C(O)C(C)O2)Oc2ccc(cc2Cl)C1O (centres unmarked) [PA-45052-A],0.78 µg/mL,0.39 µg/mL,0.39 µg/mL,0.39 µg/mL,0.39 µg/mL,0.2 µg/mL,0.2 µg/mL,0.78 µg/mL,0.2 µg/mL,0.39 µg/mL,0.2 µg/mL,0.39 µg/mL,0.78 µg/mL,0.1 µg/mL,0.39 µg/mL,0.39 µg/mL,1.63,440.9 ± 60.4 g,95.3%,105.9%,MIC [11]: 0.2 µg/mL; MIC (Cl. perfringens SP07): 0.2 µg/mL; MIC (Cl. perfringens 6B-10): 0.39 µg/mL; ED50 (50% effective dose) [13]: 0.14 mg/kg/dose; ED50 (50% effective dose) [14]: 1.91 mg/kg/dose; ED50 (50% effective dose) [15]: 0.19 mg/kg/dose; ED50 (50% effective dose) [16]: 0.99 mg/kg/dose; MIC (Cl. perfringens 9C-02): 0.39 µg/mL; MIC (Cl. perfringens 02441): 0.39 µg/mL; LD50 (mouse): > 1000 mg/kg; MIC (Cl. perfringens CW-1970): 0.39 µg/mL; MIC (Cl. perfringens S-79): 0.39 µg/mL
CNC(CC(C)C)C(=O)NC1C(=O)NC(CC(N)=O)C(=O)NC2C(=O)NC3C(=O)NC(C(=O)NC(C(=O)O)c4cc(O)cc(O)c4-c4cc3ccc4O)C(OC3CC(C)(N)C(O)C(C)O3)c3ccc(c(Cl)c3)Oc3cc2cc(c3OC2OC(CO)C(O)C(O)C2O)Oc2ccc(cc2Cl)C1O (centres unmarked) [PA-45052-B],0.78 µg/mL,0.39 µg/mL,0.39 µg/mL,0.39 µg/mL,0.39 µg/mL,0.2 µg/mL,0.39 µg/mL,1.56 µg/mL,0.39 µg/mL,0.39 µg/mL,0.2 µg/mL,0.78 µg/mL,0.78 µg/mL,0.2 µg/mL,0.78 µg/mL,0.78 µg/mL,1.60,438.5 ± 51.6 g,93.6%,105.4%,MIC [11]: 0.2 µg/mL; MIC (Cl. perfringens SP07): 0.2 µg/mL; MIC (Cl. perfringens 6B-10): 0.39 µg/mL; ED50 (50% effective dose) [13]: 0.44 mg/kg/dose; ED50 (50% effective dose) [14]: 2.84 mg/kg/dose; ED50 (50% effective dose) [15]: 0.38 mg/kg/dose; ED50 (50% effective dose) [16]: 1.45 mg/kg/dose; MIC (Cl. perfringens 9C-02): 0.39 µg/mL; MIC (Cl. perfringens 02441): 0.39 µg/mL; LD50 (mouse): 1439 mg/kg; MIC (Cl. perfringens CW-1970): 0.39 µg/mL; MIC (Cl. perfringens S-79): 0.39 µg/mL
CC(C)CC(C(=O)NC1C(=O)NC(CC(N)=O)C(=O)NC2C(=O)NC3C(=O)NC(C(=O)NC(C(=O)O)c4cc(O)cc(O)c4-c4cc3ccc4O)C(OC3CC(C)(N)C(O)C(C)O3)c3ccc(c(Cl)c3)Oc3cc2cc(c3OC2OC(CO)C(O)C(O)C2OC2CC(C)(N)C(O)C(C)O2)Oc2ccc(cc2Cl)C1O)N(C)C (centres unmarked) [PA-45052-D],–,–,–,0.78 µg/mL,0.78 µg/mL,0.2 µg/mL,0.2 µg/mL,0.78 µg/mL,0.2 µg/mL,0.39 µg/mL,–,0.39 µg/mL,0.78 µg/mL,0.2 µg/mL,0.39 µg/mL,0.39 µg/mL,–,–,–,–,–
CC(C)CC(C(=O)NC1C(=O)NC(CC(N)=O)C(=O)NC2C(=O)NC3C(=O)NC(C(=O)NC(C(=O)O)c4cc(O)cc(O)c4-c4cc3ccc4O)C(OC3CC(C)(N)C(O)C(C)O3)c3ccc(c(Cl)c3)Oc3cc2cc(c3OC2OC(CO)C(O)C(O)C2O)Oc2ccc(cc2Cl)C1O)N(C)C (centres unmarked) [PA-45052-E],–,–,–,0.78 µg/mL,0.78 µg/mL,0.39 µg/mL,0.39 µg/mL,3.13 µg/mL,0.39 µg/mL,0.78 µg/mL,–,0.78 µg/mL,1.56 µg/mL,0.39 µg/mL,0.78 µg/mL,0.78 µg/mL,–,–,–,–,–
thiopeptin [reference compound],–,–,–,–,–,–,–,–,–,–,–,–,–,–,–,–,1.62,431.5 ± 53.4 g,94.7%,103.7%,–
